Measurements from ChEMBL document CHEMBL1201862, “PubChem BioAssay data set” (2004).
The source made the active and inactive calls.

Legend:
[1] = target: Eukaryotic translation initiation factor 4E (Mus musculus, UniProt P63073); experiment: eIF4E–eIF4G protein interaction inhibitors, dose response, biochemical, TR-FRET (AID 855); format: functional;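 note: potency for disrupting eIF4E binding to eIF4GI seen as loss of FRET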
[2] = target: T1, Carboxy-terminal domain RNA polymerase II polypeptide A small phosphatase 1 (Homo sapiens, UniProt Q9GZU7); experiment: inhibitors of CTDSP1, concentration-response testing, biochemical assay, absorbance-based, actives from ultra-high-throughput screening (AID 540297); format: functional
T1 sequence (Q9GZU7 whole entry): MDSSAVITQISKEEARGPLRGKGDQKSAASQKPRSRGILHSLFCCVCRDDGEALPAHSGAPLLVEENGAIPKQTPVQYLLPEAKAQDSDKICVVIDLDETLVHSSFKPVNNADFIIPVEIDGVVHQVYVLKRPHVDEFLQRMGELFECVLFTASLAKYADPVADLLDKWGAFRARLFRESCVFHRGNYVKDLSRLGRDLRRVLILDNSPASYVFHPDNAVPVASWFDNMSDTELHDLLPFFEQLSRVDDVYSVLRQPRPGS

[3] = target: Potassium voltage-gated channel subfamily KQT member 2 (Rattus norvegicus, UniProt O88943); experiment: retigabine-insensitive KCNQ2 potentiators, concentration-response, dose response, cell-based, retigabine-insensitive compounds (AID 2654); format: functional
Potassium voltage-gated channel subfamily KQT member 2, sequence (O88943 whole entry): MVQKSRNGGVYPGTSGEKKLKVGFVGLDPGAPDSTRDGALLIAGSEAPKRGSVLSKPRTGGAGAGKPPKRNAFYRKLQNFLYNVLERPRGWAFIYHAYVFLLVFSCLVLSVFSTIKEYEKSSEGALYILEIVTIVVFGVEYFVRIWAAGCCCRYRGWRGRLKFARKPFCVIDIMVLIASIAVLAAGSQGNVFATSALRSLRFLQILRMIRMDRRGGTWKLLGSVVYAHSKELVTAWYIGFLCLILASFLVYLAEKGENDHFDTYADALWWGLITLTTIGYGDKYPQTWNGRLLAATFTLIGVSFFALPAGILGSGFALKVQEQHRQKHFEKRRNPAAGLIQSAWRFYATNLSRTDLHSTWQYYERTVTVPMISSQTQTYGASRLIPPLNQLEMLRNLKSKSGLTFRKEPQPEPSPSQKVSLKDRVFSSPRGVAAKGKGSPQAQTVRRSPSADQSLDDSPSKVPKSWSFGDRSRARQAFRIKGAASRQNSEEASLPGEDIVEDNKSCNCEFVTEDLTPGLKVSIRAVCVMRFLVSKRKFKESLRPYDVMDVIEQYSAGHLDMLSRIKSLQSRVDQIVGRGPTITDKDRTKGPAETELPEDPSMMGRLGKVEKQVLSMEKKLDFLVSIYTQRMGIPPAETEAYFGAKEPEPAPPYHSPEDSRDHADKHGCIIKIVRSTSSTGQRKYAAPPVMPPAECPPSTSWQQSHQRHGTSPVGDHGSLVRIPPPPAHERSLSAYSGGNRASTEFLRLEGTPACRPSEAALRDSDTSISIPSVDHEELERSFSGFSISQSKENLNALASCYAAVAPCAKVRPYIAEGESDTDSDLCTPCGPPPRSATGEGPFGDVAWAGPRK

HeLa = experiment: HeLa cell cytotoxicity, dose response, cytotoxicity control for MITF activator project, CellTiter-Glo luminescence, cherry-pick samples (AID 540259); format: functional, cell-based; conditions: Homo sapiens
[4] = cytotoxicity in HEK-293T cells, dose response, cytotoxicity control for BCR NF-kB inhibitor project, luminescence, B-cell screen hits (AID 489021); format: functional, cell-based;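 note: HEK-293T cells carrying an NF-kB luciferase reporter; cells exposed to compound for about 14 hours before viability readout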
[5] = target: T2, Heat shock factor protein 1 (Mus musculus, UniProt P38532); experiment: inhibition of MG132-induced HSE-luciferase signal, confirmation, cell-based, NIH3T3, luminescence, dose retest (AID 2382); format: functional;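 note: NIH3T3 fibroblasts with HSF1-driven luciferase reporter stressed by proteasome inhibitor MG132; luminescence from HSF1-driven luciferase expression after 8 hours of MG132 stress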
T2 sequence (P38532 whole entry): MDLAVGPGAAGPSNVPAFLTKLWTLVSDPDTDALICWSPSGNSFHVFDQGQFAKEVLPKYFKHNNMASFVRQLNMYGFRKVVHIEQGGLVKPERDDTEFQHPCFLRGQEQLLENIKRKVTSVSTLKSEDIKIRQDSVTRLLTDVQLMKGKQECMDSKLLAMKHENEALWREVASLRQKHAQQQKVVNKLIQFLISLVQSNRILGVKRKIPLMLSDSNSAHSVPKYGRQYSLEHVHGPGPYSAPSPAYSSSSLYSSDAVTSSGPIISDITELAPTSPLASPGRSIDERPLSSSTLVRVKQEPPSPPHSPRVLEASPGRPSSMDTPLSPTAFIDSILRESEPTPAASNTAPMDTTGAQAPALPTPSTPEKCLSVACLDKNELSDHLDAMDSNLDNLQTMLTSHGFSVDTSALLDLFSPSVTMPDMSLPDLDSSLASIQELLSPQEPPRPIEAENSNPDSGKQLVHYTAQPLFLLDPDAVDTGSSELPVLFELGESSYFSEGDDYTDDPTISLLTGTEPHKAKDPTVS

[6] = target: T3, Corticotropin-releasing factor receptor 2/Corticotropin-releasing factor-binding protein (Homo sapiens, UniProt P24387+Q13324); experiment: Dose Response confirmation of uHTS hits for small molecule antagonists of the CRF-binding protein and CRF-R2 receptor complex.; format: functional; conditions: read-out: IC50_Mean
T3 sequence (Q13324 whole entry): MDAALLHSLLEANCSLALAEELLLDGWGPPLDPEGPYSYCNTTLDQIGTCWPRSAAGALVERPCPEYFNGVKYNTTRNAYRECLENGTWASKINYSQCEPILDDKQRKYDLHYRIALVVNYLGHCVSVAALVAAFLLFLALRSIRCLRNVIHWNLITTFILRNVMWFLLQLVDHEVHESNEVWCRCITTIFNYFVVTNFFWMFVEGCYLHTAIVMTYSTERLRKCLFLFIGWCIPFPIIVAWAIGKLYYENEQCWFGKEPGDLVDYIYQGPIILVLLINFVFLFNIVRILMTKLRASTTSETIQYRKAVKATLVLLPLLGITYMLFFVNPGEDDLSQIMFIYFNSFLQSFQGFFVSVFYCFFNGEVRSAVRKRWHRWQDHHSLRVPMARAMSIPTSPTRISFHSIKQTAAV
T3 sequence (P24387 whole entry): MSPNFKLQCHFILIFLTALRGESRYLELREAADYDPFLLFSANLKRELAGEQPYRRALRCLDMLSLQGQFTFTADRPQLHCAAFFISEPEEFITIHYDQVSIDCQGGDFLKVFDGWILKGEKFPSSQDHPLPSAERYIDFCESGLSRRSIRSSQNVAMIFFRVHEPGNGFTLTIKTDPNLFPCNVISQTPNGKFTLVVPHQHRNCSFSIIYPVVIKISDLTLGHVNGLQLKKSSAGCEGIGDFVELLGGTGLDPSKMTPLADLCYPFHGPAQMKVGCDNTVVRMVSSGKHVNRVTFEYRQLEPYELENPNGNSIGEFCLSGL

[7] = target: T3, Corticotropin-releasing factor receptor 2/Corticotropin-releasing factor-binding protein; experiment: activators of CRF receptor 2 with binding protein – uHTS hits, confirmation (AID 602473); format: functional; conditions: read-out: EC50_Mean
[8] = target: ATP-dependent molecular chaperone HSP82 (Candida albicans (strain WO-1) (Yeast), UniProt C4YTQ8); experiment: loss of DOC-induced GRE-beta-galactosidase reporter signal, dose response, Hsp90 inhibitor project, S. cerevisiae, luminescence (AID 2400); format: functional, cell-based;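 note: beta-galactosidase luminescence from glucocorticoid response element reporter as proxy for Hsp90 function; inhibitor potency where signal loss means Hsp90 inhibition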
[9] = tested on: Streptococcus sp. 'group A'; experiment: growth inhibition of control SK(-) GAS strain, dose response, counter-screen for streptokinase expression inhibitor project, luminescence, kanamycin, BacTiterGlo, confirmation (AID 1900); format: functional, organism-based
[10] = target: Voltage-dependent T-type calcium channel subunit alpha-1H (Homo sapiens, UniProt O95180); format: functional;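 note: channel activity triggered by adding a high calcium stimulation buffer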
Voltage-dependent T-type calcium channel subunit alpha-1H, sequence (O95180 whole entry): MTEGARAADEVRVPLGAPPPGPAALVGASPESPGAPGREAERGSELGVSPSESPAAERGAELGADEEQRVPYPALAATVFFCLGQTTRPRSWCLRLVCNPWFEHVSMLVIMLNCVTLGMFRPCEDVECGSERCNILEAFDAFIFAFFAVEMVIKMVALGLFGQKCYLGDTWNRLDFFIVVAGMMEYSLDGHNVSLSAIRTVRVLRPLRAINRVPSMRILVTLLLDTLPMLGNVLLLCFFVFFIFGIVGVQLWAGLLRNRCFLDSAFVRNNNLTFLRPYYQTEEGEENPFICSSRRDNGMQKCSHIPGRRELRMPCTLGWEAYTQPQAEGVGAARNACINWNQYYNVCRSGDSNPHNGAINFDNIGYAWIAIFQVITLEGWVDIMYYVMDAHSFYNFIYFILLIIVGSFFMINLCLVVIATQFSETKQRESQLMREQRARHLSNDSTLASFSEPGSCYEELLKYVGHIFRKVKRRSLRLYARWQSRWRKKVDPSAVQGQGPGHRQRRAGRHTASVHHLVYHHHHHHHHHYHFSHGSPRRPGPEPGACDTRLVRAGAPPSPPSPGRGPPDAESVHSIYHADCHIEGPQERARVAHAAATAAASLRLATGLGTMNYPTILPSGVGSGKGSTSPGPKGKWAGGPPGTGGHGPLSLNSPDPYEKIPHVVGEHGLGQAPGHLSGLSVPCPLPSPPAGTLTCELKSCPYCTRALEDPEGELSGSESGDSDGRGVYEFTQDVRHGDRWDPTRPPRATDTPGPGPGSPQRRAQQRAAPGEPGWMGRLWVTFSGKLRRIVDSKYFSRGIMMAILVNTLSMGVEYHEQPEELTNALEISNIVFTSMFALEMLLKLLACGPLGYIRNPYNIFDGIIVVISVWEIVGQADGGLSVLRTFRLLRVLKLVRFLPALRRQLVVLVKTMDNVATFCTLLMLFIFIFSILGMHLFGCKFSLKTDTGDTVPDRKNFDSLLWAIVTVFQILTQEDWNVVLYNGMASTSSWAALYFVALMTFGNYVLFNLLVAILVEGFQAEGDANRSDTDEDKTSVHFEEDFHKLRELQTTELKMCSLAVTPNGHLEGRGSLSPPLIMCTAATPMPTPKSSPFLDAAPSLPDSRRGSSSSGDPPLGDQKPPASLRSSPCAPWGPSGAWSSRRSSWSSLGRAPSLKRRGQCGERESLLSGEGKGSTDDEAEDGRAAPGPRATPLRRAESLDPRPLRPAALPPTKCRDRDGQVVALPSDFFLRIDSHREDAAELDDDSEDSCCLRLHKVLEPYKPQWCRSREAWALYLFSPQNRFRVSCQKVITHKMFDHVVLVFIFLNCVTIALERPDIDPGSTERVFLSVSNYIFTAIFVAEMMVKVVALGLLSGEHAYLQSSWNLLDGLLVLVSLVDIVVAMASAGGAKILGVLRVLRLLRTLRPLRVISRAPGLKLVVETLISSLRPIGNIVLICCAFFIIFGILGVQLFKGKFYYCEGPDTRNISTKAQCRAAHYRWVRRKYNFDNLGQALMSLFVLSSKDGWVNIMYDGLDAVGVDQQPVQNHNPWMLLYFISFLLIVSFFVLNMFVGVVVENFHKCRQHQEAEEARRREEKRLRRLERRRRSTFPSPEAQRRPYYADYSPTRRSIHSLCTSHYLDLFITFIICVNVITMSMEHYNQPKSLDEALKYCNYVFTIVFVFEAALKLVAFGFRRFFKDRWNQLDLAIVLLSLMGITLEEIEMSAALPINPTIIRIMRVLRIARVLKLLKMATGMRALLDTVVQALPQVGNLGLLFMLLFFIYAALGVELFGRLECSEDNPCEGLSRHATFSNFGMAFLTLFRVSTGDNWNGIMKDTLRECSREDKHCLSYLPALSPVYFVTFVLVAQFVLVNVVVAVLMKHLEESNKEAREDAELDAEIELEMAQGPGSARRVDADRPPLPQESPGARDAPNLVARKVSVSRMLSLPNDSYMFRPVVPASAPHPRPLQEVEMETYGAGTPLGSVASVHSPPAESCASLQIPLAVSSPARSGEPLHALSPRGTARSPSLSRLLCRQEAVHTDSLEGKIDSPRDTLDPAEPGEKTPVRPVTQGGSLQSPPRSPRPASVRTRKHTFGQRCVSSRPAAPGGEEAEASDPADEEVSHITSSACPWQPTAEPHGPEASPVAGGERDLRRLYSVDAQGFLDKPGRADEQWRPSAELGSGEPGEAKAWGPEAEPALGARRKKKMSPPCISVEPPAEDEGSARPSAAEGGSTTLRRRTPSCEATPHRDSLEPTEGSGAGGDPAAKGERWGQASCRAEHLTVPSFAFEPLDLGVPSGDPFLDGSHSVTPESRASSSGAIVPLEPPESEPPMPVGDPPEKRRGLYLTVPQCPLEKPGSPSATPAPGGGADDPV

[11] = C. albicans growth with fluconazole, confirmation, fluorescence, retest (AID 2467); format: functional, cell-based
Streptococcus = experiment: Group A Streptococcus viability loss, dose response, counter-screen for streptokinase expression inhibitor project, luminescence, BacTiterGlo (AID 1915); format: functional, organism-based;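 note: potency for reduction of bacterial viability or growth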
[12] = NIH-3T3 fibroblast cytotoxicity, dose response, cytotoxicity control, cell-based, fluorescence, Alamar Blue, secondary assay (AID 2327); format: functional;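 note: NIH-3T3 mouse fibroblasts cultured with fluconazole at 8 µg/mL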
[13] = target: T4, Serine/threonine-protein phosphatase (Candida dubliniensis (strain CD36 / CBS 7987 / NCPF 3949 / NRRLY-17841) (Yeast), UniProt B9W6M3); experiment: calcineurin pathway inhibitors in yeast reporter, dose response, S. cerevisiae, CDRE-lacZ, luminescence, secondary (AID 2388); format: functional, cell-based;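 note: yeast reporter cells carrying a calcineurin-responsive lacZ construct stimulated with calcium chloride; luminescent beta-galactosidase reporter signal in whole cells rather than isolated phosphatase activity; potency for inhibition where a drop in reporter signal means calcineurin blockade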
T4 sequence (B9W6M3 whole entry): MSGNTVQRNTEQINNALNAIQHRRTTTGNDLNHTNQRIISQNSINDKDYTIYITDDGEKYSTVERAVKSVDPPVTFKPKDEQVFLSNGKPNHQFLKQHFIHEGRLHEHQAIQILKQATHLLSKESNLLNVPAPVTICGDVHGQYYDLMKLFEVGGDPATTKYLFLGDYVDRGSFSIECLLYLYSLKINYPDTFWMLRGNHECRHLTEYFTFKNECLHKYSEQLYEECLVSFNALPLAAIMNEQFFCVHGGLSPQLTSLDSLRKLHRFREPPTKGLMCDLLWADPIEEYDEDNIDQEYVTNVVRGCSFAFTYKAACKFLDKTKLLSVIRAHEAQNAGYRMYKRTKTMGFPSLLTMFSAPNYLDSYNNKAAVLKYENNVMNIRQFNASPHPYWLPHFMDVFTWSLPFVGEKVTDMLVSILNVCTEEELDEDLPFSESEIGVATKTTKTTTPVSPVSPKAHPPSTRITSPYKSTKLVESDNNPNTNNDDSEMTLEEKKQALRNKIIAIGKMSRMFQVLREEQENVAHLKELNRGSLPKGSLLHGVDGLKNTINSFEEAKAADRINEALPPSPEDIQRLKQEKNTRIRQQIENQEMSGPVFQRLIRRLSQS

Cytochrome P450 2D6 = Cytochrome P450 2D6 (Homo sapiens, UniProt P10635);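 note: CYP2D6 member of a cytochrome P450 panel assay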
[14] = target: T5, Runt-related transcription factor 1/Core-binding factor subunit beta (Homo sapiens, UniProt Q01196+Q13951); experiment: inhibitors of RUNX1 Runt–CBFb-SMMHC binding, biochemical, TR-FRET (AID 1438); format: protein assay
T5 sequence (Q01196 whole entry): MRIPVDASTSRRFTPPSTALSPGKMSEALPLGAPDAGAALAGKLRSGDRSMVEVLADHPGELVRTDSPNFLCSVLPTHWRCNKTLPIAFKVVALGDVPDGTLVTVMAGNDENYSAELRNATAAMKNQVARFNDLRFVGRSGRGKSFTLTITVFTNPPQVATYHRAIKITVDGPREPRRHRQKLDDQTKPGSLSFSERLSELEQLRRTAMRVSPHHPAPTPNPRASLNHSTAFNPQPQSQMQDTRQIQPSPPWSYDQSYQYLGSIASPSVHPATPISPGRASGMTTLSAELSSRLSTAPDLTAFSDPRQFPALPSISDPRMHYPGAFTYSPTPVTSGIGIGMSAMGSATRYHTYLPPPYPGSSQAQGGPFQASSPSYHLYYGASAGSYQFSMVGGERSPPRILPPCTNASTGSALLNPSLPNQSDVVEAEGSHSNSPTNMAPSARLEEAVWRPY
T5 sequence (Q13951 whole entry): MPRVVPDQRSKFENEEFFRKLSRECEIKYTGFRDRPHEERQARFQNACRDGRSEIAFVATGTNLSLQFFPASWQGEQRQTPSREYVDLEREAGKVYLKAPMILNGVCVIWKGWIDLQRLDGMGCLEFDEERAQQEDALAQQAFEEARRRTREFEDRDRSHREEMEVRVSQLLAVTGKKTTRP

[15] = target: T6, Endoribonuclease toxin MazF (Escherichia coli K-12, UniProt P0AE70); experiment: fluorescent RNA oligo signal without MazF, dose response, counter-screen for MazEF activator project, biochemical, fluorescence, single-stranded RNase substrate (AID 588502); format: functional
T6 sequence (P0AE70 whole entry): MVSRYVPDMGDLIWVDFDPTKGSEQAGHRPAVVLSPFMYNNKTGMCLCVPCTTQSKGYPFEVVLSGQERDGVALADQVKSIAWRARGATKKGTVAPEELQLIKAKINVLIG

[16] = target: T5, Runt-related transcription factor 1/Core-binding factor subunit beta; experiment: inhibitors of RUNX1 Runt–CBFb-SMMHC binding, primary screen, biochemical, FRET, Cerulean-Runt, Venus-CBFb-SMMHC, uHTS (AID 1434); format: protein assay;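 note: partner is the CBFb-SMMHC leukemia fusion protein rather than wild-type CBFb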
[17] = target: T6, Endoribonuclease toxin MazF; experiment: MazF toxin RNase activators, dose response, biochemical, fluorescence, single-stranded RNA substrate, uHTS hits (AID 588481); format: functional
[18] = target: T7, Voltage-gated N-type calcium channel alpha-1B subunit/Amyloid beta A4 precursor protein-binding family A member 1 (Homo sapiens, UniProt Q00975+Q02410); format: protein assay
[19] = target: T7, Voltage-gated N-type calcium channel alpha-1B subunit/Amyloid beta A4 precursor protein-binding family A member 1; format: protein assay; remark: listed apart in the source
Large T antigen = Large T antigen (Simian virus 40, UniProt P03070); format: functional, Betapolyomavirus macacae;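 note: Confirmatory-stage PubChem screen for compounds that inhibit SV40 T antigen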
[20] = target: Dual specificity tyrosine-phosphorylation-regulated kinase 1A (Rattus norvegicus, UniProt Q63470); format: biochemical, Homo sapiens
Trypsin = Trypsin (Sus scrofa, UniProt P00761); experiment: porcine trypsin inhibitors, dose response, selectivity assay for Rce1 protease inhibitor project, biochemical, quenched peptide fluorescence, cherry-pick (AID 488789)
Trypsin, sequence (P00761 whole entry): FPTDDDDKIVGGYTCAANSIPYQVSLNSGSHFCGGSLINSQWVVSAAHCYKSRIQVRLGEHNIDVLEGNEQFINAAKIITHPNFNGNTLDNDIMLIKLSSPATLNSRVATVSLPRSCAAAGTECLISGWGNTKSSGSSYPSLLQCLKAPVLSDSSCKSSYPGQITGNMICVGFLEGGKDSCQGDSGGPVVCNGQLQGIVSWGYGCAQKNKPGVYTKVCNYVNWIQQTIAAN

[21] = target: T8, Polyadenylate-binding protein 1 (Homo sapiens, UniProt P11940); experiment: PABP1 MLLE–PAM2 binding inhibitor potency, dose response, biochemical, fluorescence polarization, FITC-PAM2 peptide (AID 602259); format: functional; conditions: read-out: IC50_Mean
T8 sequence (P11940 whole entry): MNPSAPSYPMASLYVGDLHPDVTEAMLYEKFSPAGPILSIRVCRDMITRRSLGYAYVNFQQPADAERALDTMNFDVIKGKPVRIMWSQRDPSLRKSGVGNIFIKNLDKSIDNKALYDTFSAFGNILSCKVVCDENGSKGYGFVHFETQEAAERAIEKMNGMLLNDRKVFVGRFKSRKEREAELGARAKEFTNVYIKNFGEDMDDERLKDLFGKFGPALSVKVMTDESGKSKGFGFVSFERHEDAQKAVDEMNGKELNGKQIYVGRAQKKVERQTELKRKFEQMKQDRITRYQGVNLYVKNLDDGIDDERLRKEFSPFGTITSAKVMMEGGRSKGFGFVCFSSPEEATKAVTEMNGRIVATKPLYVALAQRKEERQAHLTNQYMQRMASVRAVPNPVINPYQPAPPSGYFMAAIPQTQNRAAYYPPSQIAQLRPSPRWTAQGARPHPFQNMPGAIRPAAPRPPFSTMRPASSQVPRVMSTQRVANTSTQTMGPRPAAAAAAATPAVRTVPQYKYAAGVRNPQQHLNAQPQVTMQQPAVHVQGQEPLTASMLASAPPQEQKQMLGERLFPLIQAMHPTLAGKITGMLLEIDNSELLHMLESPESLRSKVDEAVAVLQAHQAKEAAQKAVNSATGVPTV

[22] = target: T9, Rac GTPase-activating protein 1 (Homo sapiens, UniProt Q9H0H5); experiment: MgcRacGAP GTPase-activating activity inhibitors, confirmation, biochemical, ADP Hunter fluorescence, primary and confirmatory (AID 624330); format: functional
T9 sequence (Q9H0H5 whole entry): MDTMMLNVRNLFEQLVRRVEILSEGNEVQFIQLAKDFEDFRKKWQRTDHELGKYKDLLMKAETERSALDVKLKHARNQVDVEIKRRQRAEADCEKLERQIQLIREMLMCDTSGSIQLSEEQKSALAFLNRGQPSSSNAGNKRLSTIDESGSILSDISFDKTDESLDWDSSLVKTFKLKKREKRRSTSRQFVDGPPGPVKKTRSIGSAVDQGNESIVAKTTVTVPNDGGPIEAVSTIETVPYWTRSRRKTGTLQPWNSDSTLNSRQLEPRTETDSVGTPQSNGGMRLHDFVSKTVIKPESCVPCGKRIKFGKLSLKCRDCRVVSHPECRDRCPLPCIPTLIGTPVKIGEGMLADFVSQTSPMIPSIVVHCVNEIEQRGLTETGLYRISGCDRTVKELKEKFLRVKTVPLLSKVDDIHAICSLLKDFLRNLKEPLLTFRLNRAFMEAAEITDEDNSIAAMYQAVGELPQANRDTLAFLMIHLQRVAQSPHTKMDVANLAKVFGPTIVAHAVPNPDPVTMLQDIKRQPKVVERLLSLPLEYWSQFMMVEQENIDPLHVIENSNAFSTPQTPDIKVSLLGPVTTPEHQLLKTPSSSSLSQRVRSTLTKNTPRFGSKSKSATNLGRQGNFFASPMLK

[23] = target: T8, Polyadenylate-binding protein 1; experiment: PABP1 MLLE–PAM2 interaction inhibitors, dose response, miRNA deadenylation inhibitor project, biochemical, fluorescence polarization, Cy5-PAM2 peptide, secondary (AID 602260); format: functional; conditions: read-out: IC50_Mean

Eukaryotic translation initiation factor 4E, sequence (P63073 whole entry, the tested form may be a part): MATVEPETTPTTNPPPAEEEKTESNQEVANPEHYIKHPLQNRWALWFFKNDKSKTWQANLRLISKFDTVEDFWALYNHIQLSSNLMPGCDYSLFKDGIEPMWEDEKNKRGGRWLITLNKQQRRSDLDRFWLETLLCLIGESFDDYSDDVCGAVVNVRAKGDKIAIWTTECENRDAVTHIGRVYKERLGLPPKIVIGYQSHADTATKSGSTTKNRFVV

CN(Cc1ccccc1)C(=O)COC(=O)/C=C/c1ccco1
IC50 [1]: 50 µM (inactive) | IC50 [2]: 12.5 µM (active)

CCSc1ccc2nnc(-c3cccc(F)c3)n2n1
IC50 [1]: > 64 µM (inactive)

O=C(Nc1ccc(F)nc1)Nc1cccc(F)c1
EC50 [3]: 5.76 µM (active)

N#Cc1ccc(C(=O)NC2CCCCCCC2)cc1
AC50 (HeLa): 55 µM (active)

Cc1ccc(/C=C2\SC(=S)N(CCCC(=O)Nc3cccnc3)C2=O)cc1
IC50 [4]: > 80 µM (inactive) | EC50 [5]: 255 nM (active)

CCCCc1ccc(NC(=S)Nc2cccnc2)cc1
EC50 [3]: 268 µM (active) | IC50 [6]: > 47.1 µM (inactive) | EC50 [7]: > 53 µM (inactive)

COc1ccc(-c2nnc(NC(=O)c3cc(Cl)ccc3Cl)o2)cc1
EC50 [8]: 18 µM (active) | EC50 [9]: 2.64 µM (active) | EC50 [10]: 10.8 µM (active) | EC50 [11]: 815 nM (active) | EC50 (Streptococcus): 7.89 µM (active) | EC50 [12]: > 150 µM (inactive) | EC50 [13]: > 180 µM (inactive)

CC(C)(C)c1[nH]nc2c1C(c1ccc(OC(=O)c3ccco3)cc1)C(C#N)=C(N)O2 (stereo unspecified)
IC50 [1]: > 64 µM (inactive) | AC50 (Cytochrome P450 2D6): 15.8 µM (inconclusive)

COc1ccc2nc(N3CCCC3)c(C#N)cc2c1
IC50 [14]: > 100 µM (inactive) | EC50 [15]: > 99 µM (inactive) | IC50 [16]: 2.04 µM (active) | EC50 [17]: > 99 µM (inactive)

O=C(CCN1C(=O)/C(=C/c2ccccc2Cl)SC1=S)NC1C=CS(=O)(=O)C1 (stereo unspecified)
IC50 [18]: > 50 µM (inactive) | IC50 [19]: 5.41 µM (active)

O=C(Nc1cccnc1)Nc1ccc(F)c(Cl)c1
EC50 [3]: 4.21 µM (active)

O=C1NC(=O)/C(=C/c2ccc(O)cc2)S1
IC50 (Large T antigen): 10.1 µM (active) | AC50 [20]: 414 nM (active)

O=C(NC1CC1)c1ccc2c(c1)N(Cc1ccccc1)CCS2
AC50 (Trypsin): 6.54 µM (active)

COc1cccc(Nc2ccc(N3CCCCC3)cc2)c1OC
IC50 [21]: 21.4 µM (inactive) | IC50 [22]: 9.65 µM (active) | IC50 [23]: > 66 µM (inactive) | AC50 (HeLa): 252 µM (active)

Cc1ccc(NC(=O)C2C3/C=C\CCCCC32)cc1 (stereo unspecified)
AC50 (HeLa): 197 µM (active)

N#Cc1c(-c2ccncc2)c2c([nH]c1=O)-c1ccccc1OC2
IC50 [14]: > 100 µM (inactive) | IC50 [16]: 1.04 µM (active)
